From patent US8318781B2, “G-protein-conjugated receptor agonist” (Japan Science and Technology Agency, priority 2007, dated 2012)

Key:
Format in all cases: cell-based
[1] = biological target: T1, human GPR40 (hGPR40) (Homo sapiens, UniProt O14842); experiment: Determination of intracellular Ca2+ concentration (FLIPR), cell line TXGPR40; conditions: for EC50 / [Ca^2+]/GPR40 10 μM (ratio vs. LA): TXGPR40 cells; for EC50: maximum fluorescence intensity vs ligand concentration, read-out: [Ca^2+]/GPR40 pEC50 (converted); for agonistic activity for GPR40 (in words): cells in which GPR40 has been transgenically expressed; for [Ca^2+]/GPR40 10 μM (ratio vs. LA): relative fluorescence intensity vs LA at 10 μM
T1 construct: expressed in transfected cells; doxycycline-inducible expression vector

[2] = biological target: T2, human GPR120 (hGPR120) (Homo sapiens, UniProt Q5NUL3); experiment: Determination of intracellular Ca2+ concentration (FLIPR), cell line TXGPR120; conditions: for selectivity between GPR40 and GPR120 (in words), from Tables 3 and 4: GPR40 versus GPR120, Ca2+ and ERK results; for EC50 / [Ca^2+]/GPR120 10 μM (ratio vs. LA): TXGPR120 cells; for EC50: maximum fluorescence intensity vs ligand concentration, read-out: [Ca^2+]/GPR120 pEC50 (converted); for agonistic activity for hGPR120 (in words): cells in which GPR120 has been transgenically expressed; for [Ca^2+]/GPR120 10 μM (ratio vs. LA): relative fluorescence intensity vs LA at 10 μM
T2 construct: expressed in transfected cells; doxycycline-inducible expression vector
T2 sequence (Q5NUL3 1-361): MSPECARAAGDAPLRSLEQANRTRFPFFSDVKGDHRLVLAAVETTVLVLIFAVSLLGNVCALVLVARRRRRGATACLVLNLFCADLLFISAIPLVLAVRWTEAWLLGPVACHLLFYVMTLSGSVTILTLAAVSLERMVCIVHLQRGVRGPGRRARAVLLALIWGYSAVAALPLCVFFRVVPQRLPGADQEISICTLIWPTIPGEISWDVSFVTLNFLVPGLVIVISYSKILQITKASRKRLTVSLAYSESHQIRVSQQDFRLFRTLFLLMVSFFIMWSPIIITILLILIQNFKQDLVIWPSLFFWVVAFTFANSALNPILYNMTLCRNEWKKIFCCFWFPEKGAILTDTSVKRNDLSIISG

[3] = biological target: T2, human GPR120 (hGPR120); experiment: Determination of intracellular Ca2+ concentration (FLIPR), cell line GPR120/Flp-in; conditions: GPR120/Flp-in cells; for EC50: maximum fluorescence intensity vs ligand concentration, read-out: [Ca^2+]/GPR120/Flp-In pEC50 (converted); for [Ca^2+]/GPR120/Flp-In 10 μM (ratio vs. LA): relative fluorescence intensity vs LA at 10 μM

T1 sequence (O14842 whole entry): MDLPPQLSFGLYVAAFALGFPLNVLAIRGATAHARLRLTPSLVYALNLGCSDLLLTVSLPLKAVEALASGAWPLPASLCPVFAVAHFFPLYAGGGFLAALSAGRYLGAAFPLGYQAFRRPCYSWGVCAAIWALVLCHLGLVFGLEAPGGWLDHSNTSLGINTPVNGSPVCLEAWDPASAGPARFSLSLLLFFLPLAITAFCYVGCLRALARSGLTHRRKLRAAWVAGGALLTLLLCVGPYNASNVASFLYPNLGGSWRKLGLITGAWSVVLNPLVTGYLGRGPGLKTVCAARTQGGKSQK

EC50 [1] [µM]	agonistic activity for GPR40 (in words) [1]	[Ca^2+]/GPR40 10 μM (ratio vs. LA) [1]	EC50 [2] [µM]	agonistic activity for hGPR120 (in words) [2]	[Ca^2+]/GPR120 10 μM (ratio vs. LA) [2]	EC50 [3] [µM]	[Ca^2+]/GPR120/Flp-In 10 μM (ratio vs. LA) [3]	Structure (SMILES)	selectivity between GPR40 and GPR120 (in words), from Tables 3 and 4 [2]
21.4	showed a specific reactivity	0.30	5.25	exhibit a similar effect	1.60	1.66	1.06	O=C(O)CCCc1ccc(OCCN(c2ccccc2)c2nccs2)cc1 [NCG46]	acting relatively mildly for GPR40 but acting strongly for GPR120
24	showed a specific reactivity	0.07	15.8	exhibit a similar effect	0.66	2.4	0.92	CN(C)c1ccc(N(CCOc2ccc(CCCC(=O)O)cc2)c2ccccn2)cc1 [NCG54]	acting relatively mildly for GPR40 but acting strongly for GPR120
